Results reported in US20160271160A1, “HCV POLYMERASE INHIBITORS” (MEDIVIR AB, priority 2013, published 2016).

system: HCV type 1b replicon in Huh-7 luc/neo (Huh-Luc) cells; experiment: HCV replicon assay (Huh-Luc, luciferase readout); assay type: cell-based; details: Hepatitis C virus, Huh-7, 72 h
Excerpt: The compounds of formula I may be examined for activity in the inhibition of HCV RNA replication in a cellular assay aimed at identifying compounds that inhibit a HCV functional cellular replicating cell line, also known as HCV replicons. A suitable cellular assay is based on a bicistronic expression construct, as described by Lohmann et al. (1999), Science vol. 285 pp. 110-113 with modifications described by Krieger et al. (2001), Journal of Virology 75: 4614-4624, in a multi-target screening strategy.
The assay utilizes the stably transfected cell line Huh-7 luc/neo (hereafter referred to as Huh-Luc). This cell line harbours an RNA encoding a bicistronic expression construct comprising the wild type NS3-NS5B regions of HCV type 1b translated from an Internal Ribosome Entry Site (IRES) from encephalomyocarditis virus (EMCV), preceded by a reporter portion (FfL-luciferase), and a selectable marker portion (neo^R, neomycine phosphotransferase). The construct is bordered by 5′ and 3′ NTRs (non-translated regions) from HCV type 1b. Continued culture of the replicon cells in the presence of G418 (neo^R) is dependent on the replication of the HCV RNA. The stably transfected replicon cells that express HCV RNA, which replicates autonomously and to high levels, encoding inter alia luciferase, are used for screening the antiviral compounds.
The replicon cells are plated in 384 well plates in the presence of the test and control compounds which are added in various concentrations. Following an incubation of three days. HCV replication is measured by assaying luciferase activity (using standard luciferase assay substrates and reagents and a Perkin Elmer ViewLux™ ultraHTS microplate imager). Replicon cells in the control cultures have high luciferase expression in the absence of any inhibitor. The inhibitory activity of a compound on luciferase activity is monitored on the Huh-Luc cells, enabling a dose-response curve for each test compound. EC50 values are then calculated, which value represents the amount of the compound required to decrease the level of detected luciferase activity by 50%, or more specifically, the ability of the genetically linked HCV replicon RNA to replicate, […]

In the case of CC(C)OC(=O)[C@H](C)NP(=S)(OC[C@H]1O[C@@H](n2ccc(=O)[nH]c2=O)C(Cl)(Cl)[C@@H]1O)Oc1ccccc1 (stereo partly drawn) [Example 13, (2S)-Isopropyl 2-(((((2R,3R,5R)-4,4-Dichloro-5-(2,4-dioxo-3,4-dihydropyrimidin-1(2H)-yl)-3-hydroxytetrahydrofuran-2-yl)methoxy)(phenoxy)phosphorothioyl)amino)propanoate], the EC50 is reported as 5400 nM.

same assay, conditions: Hepatitis C virus, Huh-7, 72 h; HCV type 1b replicon, Huh-Luc cells, three days incubation, luciferase; read-out: EC50

Going from O=c1ccn([C@@H]2O[C@H](CO)[C@@H](O)C2(Cl)Cl)c(=O)[nH]1 [Example 1, 1-((2R,4R,5R)-3,3-dichloro-4-hydroxy-5-(hydroxymethyl)tetrahydrofuran-2-yl)pyrimidine-2,4(1H,3H)-dione] to Nc1ccn([C@@H]2O[C@H](CO)[C@@H](O)C2(Cl)Cl)c(=O)n1 [Example 11, 4-Amino-1-((2R,4R,5R)-3,3-dichloro-4-hydroxy-5-(hydroxymethyl)tetrahydrofuran-2-yl)pyrimidin-2(1H)-one], the EC50 falls from over 50000 nM to 13000 nM. The second is the more potent here.

First: CC[C@@H](C)OC(=O)[C@H](C)NP(=O)(OC[C@H]1O[C@@H](n2ccc(=O)[nH]c2=O)C(Cl)(Cl)[C@@H]1O)Oc1ccccc1 (stereo partly drawn) [Example 4, (2S)—(R)-Sec-butyl 2-(((((2R,3R,5R)-4,4-dichloro-5-(2,4-dioxo-3,4-dihydropyrimidin-1(2H)-yl)-3-hydroxytetrahydrofuran-2-yl)methoxy)(phenoxy)phosphoryl)amino)propanoate]
Second: CC[C@H](C)OC(=O)[C@H](C)NP(=O)(OC[C@H]1O[C@@H](n2ccc(=O)[nH]c2=O)C(Cl)(Cl)[C@@H]1O)Oc1ccccc1 (stereo partly drawn) [Example 6, (2S)—(S)-sec-butyl 2-(((((2R,3R,5R)-4,4-dichloro-5-(2,4-dioxo-3,4-dihydropyrimidin-1(2H)-yl)-3-hydroxytetrahydrofuran-2-yl)methoxy)(phenoxy)phosphoryl)amino)propanoate]
The EC50 of the first is 1.5-fold higher: 150 nM for the first, 100 nM for the second. The second is the more potent here.

First: C[C@H](NP(=O)(OC[C@H]1O[C@@H](n2ccc(=O)[nH]c2=O)C(Cl)(Cl)[C@@H]1O)Oc1ccccc1)C(=O)OC1CCCCC1 (stereo partly drawn) [Example 5, (2S)-Cyclohexyl 2-(((((2R,3R,5R)-4,4-dichloro-5-(2,4-dioxo-3,4-dihydropyrimidin-1(2H)-yl)-3-hydroxytetrahydrofuran-2-yl)methoxy)(phenoxy)phosphoryl)amino)propanoate]
Second: CC(C)OC(=O)[C@@H](C)NP(=O)(OC[C@H]1O[C@@H](n2ccc(=O)[nH]c2=O)C(Cl)(Cl)[C@@H]1O)Oc1ccccc1 (stereo partly drawn) [Example 14, (2R)-Isopropyl 2-(((((2R,3R,5R)-4,4-dichloro-5-(2,4-dioxo-3,4-dihydropyrimidin-1(2H)-yl)-3-hydroxytetrahydrofuran-2-yl)methoxy)(phenoxy)phosphoryl)amino)propanoate]
The EC50 of the first is 36-fold lower: 160 nM for the first, 5700 nM for the second.

CC(C)OC(=O)[C@H](C)NP(=O)(OC[C@H]1O[C@@H](n2ccc(=O)[nH]c2=O)C(Cl)(Cl)[C@@H]1O)Oc1cccc(C2CCC2)c1 (stereo partly drawn) [Example 7, (2S)-isopropyl 2-(((3-cyclobutylphenoxy)(((2R,3R,5R)-4,4-dichloro-5-(2,4-dioxo-3,4-dihydropyrimidin-1(2H)-yl)-3-hydroxytetrahydrofuran-2-yl)methoxy)phosphoryl)amino)propanoate] and CC(C)OC(=O)[C@H](C)NP(=O)(OC[C@H]1O[C@@H](n2ccc(=O)[nH]c2=O)C(Cl)(Cl)[C@@H]1O)Oc1cccc(C2(C)CC2)c1 (stereo partly drawn) [Example 8, (2S)-Isopropyl 2-(((((2R,3R,5R)-4,4-dichloro-5-(2,4-dioxo-3,4-dihydropyrimidin-1(2H)-yl)-3-hydroxytetrahydrofuran-2-yl)methoxy)(3-(1-methylcyclopropyl)phenoxy)phosphoryl)amino)propanoate] are within 1.5-fold of each other in EC50: 220 nM for the first, 230 nM for the second.

First: CC(C)OC(=O)[C@H](C)NP(=O)(OC[C@H]1O[C@@H](n2ccc(=O)[nH]c2=O)C(Cl)(Cl)[C@@H]1O)Oc1ccc(C2(C)CC2)cc1 (stereo partly drawn) [Example 9, (2S)-Isopropyl 2-(((((2R,3R,5R)-4,4-dichloro-5-(2,4-dioxo-3,4-dihydropyrimidin-1(2H)-yl)-3-hydroxytetrahydrofuran-2-yl)methoxy)(4-(1-methylcyclopropyl)phenoxy)phosphoryl)-amino)propanoate]
Second: CC(C)OC(=O)[C@H](C)NP(=O)(OC[C@H]1O[C@@H](n2ccc(N)nc2=O)C(Cl)(Cl)[C@@H]1O)Oc1ccccc1 (stereo partly drawn) [Example 12, (2S)-isopropyl 2-(((((2R,3R,5R)-5-(4-Amino-2-oxopyrimidin-1(2H)-yl)-4,4-dichloro-3-hydroxytetrahydrofuran-2-yl)methoxy)(phenoxy)phosphoryl)amino)propanoate]
The EC50 of the first is 2.1-fold higher: 360 nM for the first, 170 nM for the second.

system: genotype 1b HCV replicon; experiment: not given; details: from WO 2012/142085; cited from earlier work

Compared with CC(C)OC(=O)[C@H](C)OP(=O)(OC[C@H]1O[C@@H](n2ccc(N)nc2=O)[C@](C)(Cl)[C@@H]1O)Oc1ccccc1 (stereo partly drawn) [compound 8 of Merck WO2012/142085], CC1(Cl)C(O)C(CO)OC1n1ccc(N)nc1=O (stereo not drawn) [corresponding nucleoside] is 3.4-fold lower in EC50: 34000 nM for the first, 10000 nM for the second.

target: HCV NS5B-21 (UniProt Q9WMX2); experiment: HCV NS5B-21 SPA enzyme assay; assay type: biochemical; details: triphosphate tested
Sequence (Q9WMX2 2420-3010): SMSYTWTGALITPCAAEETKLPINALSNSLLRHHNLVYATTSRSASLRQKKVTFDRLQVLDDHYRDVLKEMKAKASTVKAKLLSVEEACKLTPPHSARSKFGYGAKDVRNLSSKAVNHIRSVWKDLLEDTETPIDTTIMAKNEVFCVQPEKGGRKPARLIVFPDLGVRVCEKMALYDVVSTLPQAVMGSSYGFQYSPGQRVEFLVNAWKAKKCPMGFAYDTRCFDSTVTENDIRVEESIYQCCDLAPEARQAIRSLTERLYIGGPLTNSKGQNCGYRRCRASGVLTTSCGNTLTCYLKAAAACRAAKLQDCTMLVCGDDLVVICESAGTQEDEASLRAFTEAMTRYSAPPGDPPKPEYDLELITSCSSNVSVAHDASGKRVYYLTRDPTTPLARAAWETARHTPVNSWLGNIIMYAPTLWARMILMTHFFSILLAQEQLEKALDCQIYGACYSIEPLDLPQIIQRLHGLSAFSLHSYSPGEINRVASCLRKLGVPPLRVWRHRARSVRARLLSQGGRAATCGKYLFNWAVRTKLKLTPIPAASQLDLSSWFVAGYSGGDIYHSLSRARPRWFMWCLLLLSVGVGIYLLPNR
Experimental: It is this triphosphate which is believed to be the antivirally active species. The enzyme assay described here may be used to confirm that compounds of the invention are antivirally active as the 5-triphosphate metabolite.
The enzyme assay measures the inhibitory effect of triphosphate compounds in an HCV NS5B-21 (21-amino acid C-terminally truncated version) SPA assay (scintillation proximity assay). The assay is performed by evaluating the amount of radiolabelled ATP incorporated by HCV NS5B-21 into newly synthesized RNA using an heterogeneous biotinylated RNA template.
To determine IC50 values the compounds are tested at various concentrations in a final volume of 100 μl of reaction mixture. The reaction is stopped by addition of 0.5M EDTA solution. The samples are transferred into flashplates precoated with streptavidin. The incorporated radioactivity is quantified using a scintillation counter (Wallac Microbeta Trilux).
The assay should include enzyme controls (about four, containing 1 μl DMSO instead of inhibitor) and background control containing all ingredients except template.
Compounds are serially diluted in DMSO on a separate dilution plate to 100× the final desired assay concentrations. […]
Incubate the plate over night and read the flash plate in the Microbeta Trilux using the protocol Flash plates H3.
IC50 is determined using Graphpad Prism. […]

Going from O=c1ccn([C@@H]2O[C@H](COP(=O)(O)OP(=O)(O)OP(=O)(O)O)[C@@H](O)C2(Cl)Cl)c(=O)[nH]1 [Example 3, Lithium((2R,3R,5R)-4,4-dichloro-5-(2,4-dioxo-3,4-dihydropyrimidin-1(2H)-yl)-3-hydroxytetrahydrofuran-2-yl)methyl triphosphate] to Nc1ccn([C@@H]2O[C@H](COP(=O)(O)OP(=O)(O)OP(=O)(O)O)[C@@H](O)C2(Cl)Cl)c(=O)n1 [Example 17, ((2R,3R,5R)-5-(4-Amino-2-oxopyrimidin-1(2H)-yl)-4,4-dichloro-3-hydroxytetrahydrofuran-2-yl)methyl tetrahydrogen triphosphate], the Ki falls from 1600 nM to 170 nM (9.4-fold).
